# Results taken from patent US20210318335A1, “BIOMARKERS, COMPOSITIONS, AND METHODS FOR DIAGNOSING AND TREATING SUBJECTS EXPOSED TO PROTEIN/HEPARIN COMPLEXES” (DUKE UNIVERSITY, priority 2018, published 2021).
# B1: C1 esterase inhibitor: C1-inhibitor, classical pathway complement inhibitor added to plasma at 10 and 20 IU/mL (protein, UniProt P05155 23-500, looked up)
# Plasma protease C1 inhibitor: NPNATSSSSQDPESLQDRGEGKVATTVISKMLFVEPILEVSSLPTTNSTTNSATKITANTTDEPTTQPTTEPTTQPTIQPTQPTTQLPTDSPTQPTTGSFCPGPVTLCSDLESHSTEAVLGDALVDFSLKLYHAFSAMKKVETNMAFSPFSIASLLTQVLLGAGENTKTNLESILSYPKDFTCVHQALKGFTTKGVTSVSQIFHSPDLAIRDTFVNASRTLYSSSPRVLSNNSDANLELINTWVAKNTNNKISRLLDSLPSDTRLVLLNAIYLSAKWKTTFDPKKTRMEPFHFKNSVIKVPMMNSKKYPVAHFIDQTLKAKVGQLQLSHNLSLVILVPQNLKHRLEDMEQALSPSVFKAIMEKLEMSKFQPTLLTLPRIKVTTSQDMLSIMEKLEFFDFSYDLNLCGLTEDPDLQVSAMQHQTVLELTETGVEAAAASAISVARTLLVFEVQQPFLFVLWDQQHKFPVFMGRVYDPRA
# Assays:
# [1] = test system: complement activation by PF4/heparin complexes; assay: Antigen-C3c capture ELISA assay: complement activation by PF4/heparin in plasma; type: biochemical, human; details: for effect of chelator on complement activation by PF4/heparin: 10 mM added to healthy donor plasma prior to PF4/heparin
# Procedure: Antigen-C3c capture ELISA assay and Specificity ELISA: Antigen-specific monoclonal antibodies (mouse anti human PF4/heparin; KKO or mouse anti-protamine/heparin; ADA at 2 μg/mL) were incubated overnight on a microtiter plate (in phosphate buffered saline, PBS) followed by washing and blocking with 1% bovine serum albumin (BSA) in PBS for 2 hours. […] Unless specified antigen concentrations were 25 μg/mL (PF4) and 0.25 U/mL (heparin) for KKO coated plates and 125 μg/mL (PRT) and 6 U/mL (heparin) for ADA coated plates. Next, plasma containing antigen fixed by complement activation fragments was added to the capture plate for 1 hr followed by serial washes. Complement-coated antigen was detected using a biotinylated anti-C3c antibody (recognizes C3 and all C3c-containing fragments of C3, including iC3b; Quidel Corporation, San Diego, Calif.) followed by colorimetric detection as previously described. […] IgM studies: Goat anti-human IgM (μ-chain specific) agarose beads were used to deplete IgM from plasma. Anti-IgM or control agarose beads were incubated with plasma and depleted plasma supernatant was analyzed in the antigen-C3c capture assay described above.
# B cells = assay: Flow cytometry of whole blood: binding of PF4/heparin, C3c and IgM to B cells; type: cell-based, human; details: whole blood incubated with PF4 25 μg/mL + heparin 0.25 U/mL; excess heparin wash
# Procedure: Flow cytometry studies: Flow-based studies of antigen, complement, or IgM binding to B cells were performed as described previously (Khandelwal S, et al. (2016) Blood, 128(14):1789-1799). Patient samples were processed without addition of exogenous antigen. Cells were analyzed using a BD FACS Canto Flow cytometer (BD Biosciences, Franklin Lakes, N.J.). Signals from a minimum of 10,000 cells were acquired from each sample. Analyses were performed using FCS express software (Version 5 Flow Research Edition; De Novo Software).
# To examine if IgM co-localizes with PF4/heparin antigen and complement on B cells, surface IgM on B cells before and after addition of antigen were examined.
molecule,measurement,setting,value
"O=C(O)CN(CCOCCOCCN(CC(=O)O)CC(=O)O)CC(=O)O [EGTA, ethylene glycol-bis (β-aminoethyl ether)-N,N,N′,N′-tetraacetic acid]",effect of chelator on complement activation by PF4/heparin,[1],eliminated complement activation
"[Cl-].[Cl-].[Mg+2] [Mg^2+, Magnesium chloride]",effect of Mg2+ supplementation on complement activation by PF4/heparin,"[1]; EGTA-treated plasma (10 mM EGTA), MgCl2 10 mM",did not rescue complement activation
heparin,effect of excess heparin on PF4/heparin and IgM fluorescence on B cells,B cells,reduced PF4/heparin and IgM fluorescence to baseline
"O=C(O)CN(CCN(CC(=O)O)CC(=O)O)CC(=O)O [EDTA, ethylenediaminetetraacetic acid]",effect of chelator on complement activation by PF4/heparin,[1],eliminated complement activation
B1,effect of C1-inhibitor on complement activation by PF4/heparin,"[1]; 10 and 20 IU/mL, healthy donor plasma pre-incubated before PF4/heparin",complement activation was reduced
